# Results from patent US11491120B2, “Pharmacological prophylactics against stress-induced affective disorders in females” (The Trustees of Columbia University in the City of New York, priority 2017, dated 2022).
# Entries after “also recorded” stand apart in the source; their conditions may differ.
# Tests used:
# female 129S6/SvEv mice [1] = experiment: Contextual fear conditioning (CFC), 3-shock, freezing in training and context re-exposure
# male mice = experiment: Prophylactic efficacy in male mice (immobility in the forced swim test); type: in vivo, mouse
# female 129S6/SvEv mice [2] = experiment: Elevated plus maze (EPM); type: in vivo, mouse; conditions: 0.025 mg/kg, 1 week prophylactic drug, learned helplessness stress
# Experimental: The EPM was administered as previously described (58), with the exception that videos were scored using ANY-maze behavioral tracking software (Stoelting Co., Wood Dale, Ill.).
# We have previously shown that prophylactic (R,S)-ketamine attenuates helpless behavior in male mice (18). To validate these findings in females, female mice were administered saline, (R,S)-ketamine, or (2R,6R)-HNK one week prior to LH training (FIG. 4A). Two weeks later, mice were tested for escape latency and for depressive- and anxiety-like behaviors in the FST and elevated plus maze (EPM). CFC was again administered following these behavioral assays.
# [3] = Contextual Fear Conditioning Training, Dunnett test Sal vs. drug (0.075), 1 week prophylactic drug
# [4] = Contextual Fear Conditioning Training, Dunnett test Sal vs. drug (0.1), 1 week prophylactic drug
# [5] = Contextual Fear Conditioning Training, Dunnett test Sal vs. drug (0.3), 1 week prophylactic drug
# [6] = Contextual Fear Conditioning Training, Dunnett test Sal vs. drug (2.5), 1 week prophylactic drug
# [7] = Contextual Fear Conditioning Training, Dunnett test Sal vs. drug (10), 1 week prophylactic drug
# [8] = Ovariectomized cohort, 1 week prophylactic drug, Contextual Fear Conditioning Re-exposure, FIG. 10B, Sham mice, K (10), (2R,6R)-HNK (0.025)
# [9] = Ovariectomized cohort, 1 week prophylactic drug, Contextual Fear Conditioning Re-exposure, FIG. 10C, Sham mice, K (10), (2R,6R)-HNK (0.025)
# [10] = Ovariectomized, E2/P4 replacement, 1 week prophylactic drug, Contextual Fear Conditioning Training, FIG. 10D, Vehicle vs E2/P4, same drug, K (10), (2R,6R)-HNK (0.025)
# [11] = Sal vs. (2R,6R)-HNK (0.025), Fisher's PLSD, 1 week prophylactic drug, learned helplessness stress, Contextual Fear Conditioning Re-exposure
# [12] = Sal vs. (2R,6R)-HNK (0.025), Fisher's PLSD, Stress, antidepressant drug/Contextual Fear Conditioning Training
smiles,measurement,setting,value
"N[C@@]1(c2ccccc2Cl)CCC[C@@H](O)C1=O [(2R,6R)-HNK, (2R,6R)-hydroxynorketamine]","p, Freezing (min 4)",female 129S6/SvEv mice [1]; [3],0.9911
same,"p, Freezing (min 5)",female 129S6/SvEv mice [1]; [3],0.9993
same,"p, Freezing (min 1-5)",female 129S6/SvEv mice [1]; [4],0.6657
same,"p, Freezing (min 4)",female 129S6/SvEv mice [1]; [4],>0.9999
same,"p, Freezing (min 5)",female 129S6/SvEv mice [1]; [4],0.2588
same,"p, Freezing (min 1-5)",female 129S6/SvEv mice [1]; [5],0.9992
same,"p, Freezing (min 4)",female 129S6/SvEv mice [1]; [5],0.9477
same,"p, Freezing (min 5)",female 129S6/SvEv mice [1]; [5],>0.9999
same,"p, Freezing (min 1-5)",female 129S6/SvEv mice [1]; [6],0.9993
same,"p, Freezing (min 4)",female 129S6/SvEv mice [1]; [6],0.9991
same,"p, Freezing (min 5)",female 129S6/SvEv mice [1]; [6],0.9997
same,"p, Freezing (min 1-5)",female 129S6/SvEv mice [1]; [7],0.1798
same,"p, Freezing (min 4)",female 129S6/SvEv mice [1]; [7],0.4387
same,"p, Freezing (min 5)",female 129S6/SvEv mice [1]; [7],0.3423
same,"p, Freezing (min 1-5), Fisher's PLSD, OVX Sal vs OVX drug","female 129S6/SvEv mice [1]; Ovariectomized cohort, 1 week prophylactic drug, Contextual Fear Conditioning Re-exposure, FIG. 10B, OVX mice, K (10), (2R,6R)-HNK (0.025)",0.2290
same,"* (significance), Freezing (min 1-5), Fisher's PLSD, Sham Sal vs Sham drug",female 129S6/SvEv mice [1]; [8],* (* p<0.05)
same,"p, Freezing (min 1-5), Fisher's PLSD, Sham Sal vs Sham drug",female 129S6/SvEv mice [1]; [8],0.0244
same,"p, Freezing (min 1-5), Fisher's PLSD, Sham drug vs OVX drug","female 129S6/SvEv mice [1]; Ovariectomized cohort, 1 week prophylactic drug, Contextual Fear Conditioning Re-exposure, FIG. 10B, Sham vs OVX, same drug, K (10), (2R,6R)-HNK (0.025)",0.3764
same,"p, Freezing Average (min 1-5), Fisher's PLSD, OVX Sal vs OVX drug","female 129S6/SvEv mice [1]; Ovariectomized cohort, 1 week prophylactic drug, Contextual Fear Conditioning Re-exposure, FIG. 10C, OVX mice, K (10), (2R,6R)-HNK (0.025)",0.2290
same,"* (significance), Freezing Average (min 1-5), Fisher's PLSD, Sham Sal vs Sham drug",female 129S6/SvEv mice [1]; [9],* (* p<0.05)
same,"p, Freezing Average (min 1-5), Fisher's PLSD, Sham Sal vs Sham drug",female 129S6/SvEv mice [1]; [9],0.0244
same,"p, Freezing Average (min 1-5), Fisher's PLSD, Sham drug vs OVX drug","female 129S6/SvEv mice [1]; Ovariectomized cohort, 1 week prophylactic drug, Contextual Fear Conditioning Re-exposure, FIG. 10C, Sham vs OVX, same drug, K (10), (2R,6R)-HNK (0.025)",0.3764
same,"p, Freezing (min 1-5), Fisher's PLSD, E2/P4 Sal vs E2/P4 drug","female 129S6/SvEv mice [1]; Ovariectomized, E2/P4 replacement, 1 week prophylactic drug, Contextual Fear Conditioning Re-exposure, FIG. 10E, E2/P4 mice, K (10), (2R,6R)-HNK (0.025)",0.4219
same,"p, Freezing (min 1-5), Fisher's PLSD, Vehicle Sal vs Vehicle drug","female 129S6/SvEv mice [1]; Ovariectomized, E2/P4 replacement, 1 week prophylactic drug, Contextual Fear Conditioning Re-exposure, FIG. 10E, Vehicle (hormone) mice, K (10), (2R,6R)-HNK (0.025)",0.9324
same,"p, Freezing (min 1-5), Fisher's PLSD, Vehicle drug vs E2/P4 drug","female 129S6/SvEv mice [1]; Ovariectomized, E2/P4 replacement, 1 week prophylactic drug, Contextual Fear Conditioning Re-exposure, FIG. 10E, Vehicle vs E2/P4, same drug, K (10), (2R,6R)-HNK (0.025)",0.5588
same,"p, Freezing Average (min 1-5), Fisher's PLSD, E2/P4 Sal vs E2/P4 drug","female 129S6/SvEv mice [1]; Ovariectomized, E2/P4 replacement, 1 week prophylactic drug, Contextual Fear Conditioning Re-exposure, FIG. 10F, E2/P4 mice, K (10), (2R,6R)-HNK (0.025)",0.4219
same,"p, Freezing Average (min 1-5), Fisher's PLSD, Vehicle Sal vs Vehicle drug","female 129S6/SvEv mice [1]; Ovariectomized, E2/P4 replacement, 1 week prophylactic drug, Contextual Fear Conditioning Re-exposure, FIG. 10F, Vehicle (hormone) mice, K (10), (2R,6R)-HNK (0.025)",0.9324
same,"p, Freezing Average (min 1-5), Fisher's PLSD, Vehicle drug vs E2/P4 drug","female 129S6/SvEv mice [1]; Ovariectomized, E2/P4 replacement, 1 week prophylactic drug, Contextual Fear Conditioning Re-exposure, FIG. 10F, Vehicle vs E2/P4, same drug, K (10), (2R,6R)-HNK (0.025)",0.5588
same,"p, Freezing (min 1-5), Fisher's PLSD, E2/P4 Sal vs E2/P4 drug","female 129S6/SvEv mice [1]; Ovariectomized, E2/P4 replacement, 1 week prophylactic drug, Contextual Fear Conditioning Training, FIG. 10D, E2/P4 mice, K (10), (2R,6R)-HNK (0.025)",0.7901
same,"p, Freezing (min 1-5), Fisher's PLSD, Vehicle Sal vs Vehicle drug","female 129S6/SvEv mice [1]; Ovariectomized, E2/P4 replacement, 1 week prophylactic drug, Contextual Fear Conditioning Training, FIG. 10D, Vehicle (hormone) mice, K (10), (2R,6R)-HNK (0.025)",0.6290
same,"* (significance), Freezing (min 1-5), Fisher's PLSD, Vehicle drug vs E2/P4 drug",female 129S6/SvEv mice [1]; [10],** (** p<0.01)
same,"p, Freezing (min 1-5), Fisher's PLSD, Vehicle drug vs E2/P4 drug",female 129S6/SvEv mice [1]; [10],0.0067
same,"*, Freezing (min 1)",female 129S6/SvEv mice [1]; [11],* (* p<0.05)
same,"p, Freezing (min 1)",female 129S6/SvEv mice [1]; [11],0.0399
same,"p, Freezing (min 5)","female 129S6/SvEv mice [1]; Sal vs. (2R,6R)-HNK (0.025), Fisher's PLSD, 3 day prophylactic drug/Contextual Fear Conditioning Training",0.9911
same,"p, Freezing (min 1-5)",female 129S6/SvEv mice [1]; [12],0.2199
same,"p, Freezing (min 5)",female 129S6/SvEv mice [1]; [12],0.0731
same,"p, Freezing Average (min 1-5)","female 129S6/SvEv mice [1]; Sal vs. (2R,6R)-HNK (0.025), t-test, 24 hour prophylactic drug/Contextual Fear Conditioning Re-exposure",0.2334
same,"Freezing during CFC Training, E2/P4+drug vs vehicle+drug","female 129S6/SvEv mice [1]; ovariectomized mice, hormone replacement",froze significantly more; also recorded: exhibited increased freezing
same,Freezing during CFC re-exposure vs saline,"female 129S6/SvEv mice [1]; ovariectomized mice, vehicle condition",froze at comparable levels
same,Freezing during re-exposure to the CFC training context vs saline,"female 129S6/SvEv mice [1]; single i.p. injection 1 week before 3-shock CFC, all doses, female mice",do not significantly alter freezing; also recorded: did not alter overall freezing
same,Attenuation of learned fear,"female 129S6/SvEv mice [1]; single injection 1 week before stressor, female mice",do not alter learned fear; also recorded: do not attenuate learned fear
same,Prophylactically effective dose in males,male mice,0.075 mg/kg
same,"P, Sal vs. drug, Fisher's PLSD: Time in Closed Arms Average (min 1-6), Elevated Plus Maze",female 129S6/SvEv mice [2],0.3285
same,"P, Sal vs. drug, Fisher's PLSD: Time in Open Arms Average (min 1-6), Elevated Plus Maze",female 129S6/SvEv mice [2],0.9855
